Patent publication US9550782B2, “Compounds and methods for treating diabetes” (Medivation Technologies, Inc., priority 2011, dated 2017)
Where “and” joins values, the source holds several entries; their conditions need not be identical. Equal entries are not always repeated.

Legend:
[1] = molecular target: T1, human recombinant adrenergic α2B receptor (Homo sapiens, UniProt P18089); assay: Radioligand binding, adrenergic α2B ([3H]Rauwolscine); details: for Percentage inhibition of ligand binding, Adrenergic α2B (0.03 μM): repeat datapoints each shown
T1 construct: expressed in transfected cells; host or cells: CHO-K1
T1 sequence (P18089 1-450): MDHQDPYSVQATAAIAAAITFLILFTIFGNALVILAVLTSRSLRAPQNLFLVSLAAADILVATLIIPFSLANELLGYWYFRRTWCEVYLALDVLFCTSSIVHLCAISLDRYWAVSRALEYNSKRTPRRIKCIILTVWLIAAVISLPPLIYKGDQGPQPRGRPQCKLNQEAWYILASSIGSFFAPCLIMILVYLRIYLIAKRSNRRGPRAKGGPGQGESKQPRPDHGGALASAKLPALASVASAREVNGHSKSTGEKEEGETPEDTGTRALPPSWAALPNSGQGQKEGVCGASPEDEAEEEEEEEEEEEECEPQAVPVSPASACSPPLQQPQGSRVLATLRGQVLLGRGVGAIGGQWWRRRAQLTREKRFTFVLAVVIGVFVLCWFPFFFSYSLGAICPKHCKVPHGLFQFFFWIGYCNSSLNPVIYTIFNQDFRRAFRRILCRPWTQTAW
Experimental: To evaluate in radioligand binding assays the activity of compounds of the invention, human recombinant adrenergic α2B receptor expressed in Chinese hamster ovary (CHO) K1 cells (Uhlen, S. et al, Eur. J. Pharmacol. 343(1):93, 1998) in a modified Tris-HCl buffer (50 mM Tris-HCl, pH 7.4, 12.5 mM MgCl2, 1 mM EDTA, 0.2% BSA) was used. Compounds of the invention were incubated with 2.5 nM [3H]Rauwolscine for 60 min at 25° C. Non-specific binding was estimated in the presence of 10 μM Prazosin. Receptor proteins were filtered and washed, the filters were then counted to determine [3H]Rauwolscine specifically bound. […] Compounds of the invention were tested in this biochemical assay and percent inhibition of specific binding was determined. Biochemical assay results are presented as the percent inhibition of specific binding in Table B1.

[2] = molecular target: T2, rat adrenergic α1B receptor (Rattus norvegicus, UniProt P15823); assay: Radioligand binding, adrenergic α1B ([3H]Prazosin); design: species or system Wistar Rat; details: for Percentage inhibition of ligand binding, Adrenergic α1B (0.1 μM): repeat datapoints each shown
T2 construct: rat adrenergic α1B receptor obtained from Wistar Rat liver; from tissue; host or cells: Wistar rat liver
T2 sequence (P15823 1-515): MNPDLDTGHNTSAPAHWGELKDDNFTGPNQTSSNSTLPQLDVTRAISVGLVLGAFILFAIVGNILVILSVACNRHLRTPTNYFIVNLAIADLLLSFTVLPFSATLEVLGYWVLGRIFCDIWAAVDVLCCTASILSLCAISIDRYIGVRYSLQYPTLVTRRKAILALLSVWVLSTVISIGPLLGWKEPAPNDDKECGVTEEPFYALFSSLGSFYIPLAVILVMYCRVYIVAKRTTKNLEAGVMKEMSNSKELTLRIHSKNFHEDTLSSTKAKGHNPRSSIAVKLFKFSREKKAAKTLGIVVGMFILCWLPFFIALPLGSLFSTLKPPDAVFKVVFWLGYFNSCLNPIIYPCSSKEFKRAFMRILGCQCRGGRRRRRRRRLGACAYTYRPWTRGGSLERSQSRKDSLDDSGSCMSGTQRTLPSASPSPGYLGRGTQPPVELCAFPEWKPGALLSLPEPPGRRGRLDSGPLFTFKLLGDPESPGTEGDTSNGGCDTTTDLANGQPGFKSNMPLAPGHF
Experimental: To evaluate in radioligand binding assays the activity of compounds of the invention, rat adrenergic α1B receptor obtained from Wistar Rat liver (Garcia-S'ainz, J. et al, Biochem. Biophys. Res. Commun. 186:760, 1992; Michel, A. et al, Br. J. Pharmacol. 98:883, 1989) in a modified Tris-HCl buffer (50 mM Tris-HCl buffer, pH 7.4, 0.5 mM EDTA) was used. Compounds of the invention were incubated with 0.25 nM [^3H]Prazosin for 60 min at 25° C. Non-specific binding was estimated in the presence of 10 μM phentolamine. Receptor proteins were filtered and washed, the filters were then counted to determine [^3H]Prazosin specifically bound. […] Compounds of the invention were tested in this biochemical assay and percent inhibition of specific binding was determined. Biochemical assay results are presented as the percent inhibition of specific binding in Table B1.

[3] = molecular target: T3, human recombinant adrenergic α2A receptor (Homo sapiens, UniProt P08913); assay: Radioligand binding, adrenergic α2A ([3H]MK-912); details: [3H]MK-912; for Percentage inhibition of ligand binding, Adrenergic α2A (0.1 μM): repeat datapoints each shown
T3 construct: expressed in transfected cells; host or cells: insect Sf9 cells
T3 sequence (P08913 1-465): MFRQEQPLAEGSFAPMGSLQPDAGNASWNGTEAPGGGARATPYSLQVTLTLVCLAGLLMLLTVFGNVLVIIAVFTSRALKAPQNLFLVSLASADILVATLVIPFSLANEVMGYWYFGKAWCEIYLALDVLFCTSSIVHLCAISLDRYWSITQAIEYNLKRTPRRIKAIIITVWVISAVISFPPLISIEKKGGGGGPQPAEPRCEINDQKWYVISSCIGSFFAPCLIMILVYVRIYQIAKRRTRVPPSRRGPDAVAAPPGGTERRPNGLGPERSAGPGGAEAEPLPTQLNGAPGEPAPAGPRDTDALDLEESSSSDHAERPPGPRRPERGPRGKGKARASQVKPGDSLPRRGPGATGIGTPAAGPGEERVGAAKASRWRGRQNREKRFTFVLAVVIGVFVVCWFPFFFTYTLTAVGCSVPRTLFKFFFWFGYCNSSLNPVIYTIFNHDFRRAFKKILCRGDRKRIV
Experimental: To evaluate in radioligand binding assays the activity of compounds of the invention, human recombinant adrenergic α2A receptor expressed in insect Sf9 cells (Uhlen, S. et al, J. Pharmacol. Exp. Ther. 271:1558, 1994) in a modified Tris-HCl buffer (50 mM Tris-HCl, pH 7.4, 12.5 mM MgCl2, 2 mM EDTA) was used. Compounds of invention were incubated with 1 nM [^3H]MK-912 for 60 min at 25° C. MK912 is (2S-trans)-1,3,4,5′,6,6′,7,12b-octahydro-1′,3′-dimethyl-spiro[2H-benzofuro[2,3-a]quinolizine-2,4′(1′H)-pyrimidin]-2′(3′H)-one hydrochloride. Non-specific binding was estimated in the presence of 10 μM WB-4101 (2-(2,6-Dimethoxyphenoxyethyl)aminomethyl-1,4-benzodioxane hydrochloride). Receptor proteins were filtered and washed, the filters were then counted to determine [^3H]MK-912 specifically bound. […] Compounds of the invention were tested in this biochemical assay and percent inhibition of specific binding was determined. Biochemical assay results are presented as the percent inhibition of specific binding in Table B1.

SMILES | Percentage inhibition of ligand binding, Adrenergic α2B ([1]; 0.03 μM compound, 0.03 µM) | Percentage inhibition of ligand binding, Adrenergic α1B ([2]; 0.1 μM compound, 0.1 µM) | Percentage inhibition of ligand binding, Adrenergic α2B (0.03 μM) ([1]; compound at 0.03 μM, 0.03 µM) [%] | Percentage inhibition of ligand binding, Adrenergic α1B (0.1 μM) ([2]; compound at 0.1 μM, 0.1 µM) [%] | Percentage inhibition of ligand binding, Adrenergic α2A (0.1 μM) ([3]; compound at 0.1 μM, 0.1 µM) [%] | other results
CN1CCc2c(c3cc(C(F)(F)F)ccc3n2CC(O)c2cccnc2)C1 (single isomer, unassigned) [59a] |  |  | 15 | 11 | 18 | 
Cc1ccc2c(c1)c1c(n2CC(O)c2cc[n+]([O-])cc2)CCN(C)C1 (single isomer, unassigned) [69b] |  |  | 19 | 8 | 7 | 
Cc1ccc2c(c1)c1c(n2CC(O)c2ccncc2)CC2CCCCN2C1 (racemic) [75d] |  |  | 102 | 26 | 49 | 
CN1CCc2c(c3cc(Cl)ccc3n2CC(O)c2cccnc2)C1 (single isomer, unassigned) [7a] |  |  | 59 | 28 | 1 | 
Cc1ccc2c(c1)c1c(n2CC(O)c2ccncc2)CC2CCCN2C1 (single isomer, unassigned) [76d] |  |  | 91 | 51 | 40 | 
Cc1ccc2c(c1)c1c(n2CC(N)c2ccncc2)CC2CCC1N2C (single isomer, unassigned) [155b] |  | 1% |  |  |  | Percentage inhibition of ligand binding, Adrenergic α2B ([1]; 0.03 μM compound): 5%; Percentage inhibition of ligand binding, Adrenergic α2A ([3]; 0.1 μM compound, 0.1 µM): 5%
CCC1c2c(c3cc(C)ccc3n2CC(O)c2ccncc2)C2CCN1C2 (single isomer, unassigned) [36b] |  |  | −1 | 11 | 0 | 
CN1CCc2c(n(CC(C)(O)c3cccnc3)c3ccc(Cl)cc23)C1 (single isomer, unassigned) [28b] |  |  | 37 | 20 | 24 | 
Cc1ccc2c(c1)c1c(n2CC(C)(O)c2ccc(C)nc2)CCN(C)C1 (stereo not shown) [29b] |  |  | 46 | 14 | 10 | 
CCC1c2c(c3cc(C)ccc3n2CC(O)c2ccncc2)C2CCN1C2 (single isomer, unassigned) [36a] |  |  | 33 | 14 | 8 | 
Cc1ccc2c(c1)c1c(n2CC(O)c2cn[nH]c2)CCN(C)C1 (stereo not shown) [II-106b] |  |  |  |  |  | Percentage inhibition of ligand binding, Adrenergic α2B (0.03 μM) ([1]; compound at 0.03 μM): 36%; Percentage inhibition of ligand binding, Adrenergic α1B (0.1 μM) ([2]; compound at 0.1 μM): 31%; Percentage inhibition of ligand binding, Adrenergic α2A (0.1 μM) ([3]; compound at 0.1 μM): 8%
OC(Cn1c2c(c3cccnc31)CN1CCCC1C2)c1ccncc1 (single isomer, unassigned) [37b] |  |  | −3 | −10 | −20 | 
Cc1cnc2c(c1)c1c(n2CC(C)(O)c2cccnc2)CCN(C)C1 (single isomer, unassigned) [II-99a] |  |  |  |  |  | Percentage inhibition of ligand binding, Adrenergic α2B ([1]; compound at 0.03 μM, 0.03 µM): 49%; Percentage inhibition of ligand binding, Adrenergic α1B ([2]; compound at 0.1 μM, 0.1 µM): 12%; Percentage inhibition of ligand binding, Adrenergic α2A ([3]; compound at 0.1 μM, 0.1 µM): 24%
Cc1ccc2c(c1)c1c(n2CC(OC(=O)C(C)(C)C)c2ccncc2)CCN(C)C1 (single isomer, unassigned) [130a] | 100% and 104% | 66% and 68% |  |  |  | Percentage inhibition of ligand binding, Adrenergic α2B ([1]; 0.1 μM compound): 107%; Percentage inhibition of ligand binding, Adrenergic α1B ([2]; 0.03 μM compound, 0.03 µM): 32%
Cc1ccc2c(c1)c1c(n2CC(O)c2ccc(C#N)cc2)CCN(C)C1 (stereo not shown) [142a] |  |  |  |  |  | Percentage inhibition of ligand binding, Adrenergic α2B ([1]; 0.03 μM compound): 71%; Percentage inhibition of ligand binding, Adrenergic α1B ([2]; 0.1 μM compound): 68%
Cc1ccc(CCn2c3c(c4cc(Cl)cnc42)C2CCCN2CC3)cn1 (single isomer, unassigned) [137a] | 104% | 94% |  |  |  | 

Continued, in another order:

Percentage inhibition of ligand binding, Adrenergic α2B ([1]; 0.03 μM compound, 0.03 µM) | Percentage inhibition of ligand binding, Adrenergic α1B ([2]; 0.1 μM compound, 0.1 µM) | Percentage inhibition of ligand binding, Adrenergic α2B (0.03 μM) ([1]; compound at 0.03 μM, 0.03 µM) [%] | Percentage inhibition of ligand binding, Adrenergic α1B (0.1 μM) ([2]; compound at 0.1 μM, 0.1 µM) [%] | Percentage inhibition of ligand binding, Adrenergic α2A (0.1 μM) ([3]; compound at 0.1 μM, 0.1 µM) [%] | SMILES | other results
16% | 6% |  |  |  | Cc1cnc2c(c1)c1c(n2CC(C)(O)c2ccc(C)nc2)CCN2CCCC12 (single isomer, unassigned) [148c] | Percentage inhibition of ligand binding, Adrenergic α2A ([3]; 0.1 μM compound, 0.1 µM): −1%
41% | 65% |  |  |  | Cc1cnc2c(c1)c1c(n2CC(N)c2ccc(C#N)cc2)CCNC1 (single isomer, unassigned) [160b] | Percentage inhibition of ligand binding, Adrenergic α2A ([3]; 0.1 μM compound, 0.1 µM): 5%
88% and 96% | 16% |  |  |  | Cc1ccc2c(c1)c1c(n2CC(c2ccncc2)N(C)C)CCN(C)C1 (single isomer, unassigned) [150a] | Percentage inhibition of ligand binding, Adrenergic α2B ([1]; 0.1 μM compound): 100%; Percentage inhibition of ligand binding, Adrenergic α2A ([3]; 0.1 μM compound, 0.1 µM): 16%
37% | −2% |  |  |  | Cc1cnc2c(c1)c1c(n2CC(N)c2ccc(C#N)cc2)CCN(C)C1 (single isomer, unassigned) [159a] | 
−2% | 37% |  |  |  | Cc1ccc2c(c1)c1c(n2CC(C)(O)c2ccc(C)nc2)CN(C)CC1 (stereo not shown) [196b] | 
